Values after ≈ are worked out from the molar mass of the structure shown.
Key:
[1] = PPB assay by ultrafiltration, rat plasma; type: in vitro ADME, rats
Method: The PPB of ammoxetine was determined using the ultrafiltration method. Triplicate samples of rat, dog, or human plasma were spiked with ammoxetine at three final concentrations (50, 150, and 450 ng/mL). The spiked plasma samples were then incubated in a 37°C air-bath shaker for 1 h until equilibrium was reached. After incubation, 400 μL of the plasma samples were transferred to pre-saturated ultrafiltration devices. These devices were subsequently centrifuged at 13,800×g and 20°C for 20 min to separate the unbound ammoxetine. 100 μL of the test samples were taken and mixed with 100 μL of the IS, L-phencynonate (50 ng/mL), and 300 μL of methanol. Following centrifugation at 13,800×g for 10 min, the supernatants were used to determine the total and free concentrations of ammoxetine in the plasma (C t , C f ) using an LC-MS-MS method. The PPB rate (%) of ammoxetine was calculated by dividing (C t −C f ) by C t .

[2] = biological target: CYP 2D6 (Homo sapiens, UniProt P10635); assay: Phenotyping with recombinant human CYP 2D6; type: in vitro ADME; design: purchased BD (Woburn, USA); conditions: 5 μmol/L, 25 pmol/mL CYP, 1 h
Method: Ammoxetine (final concentration 5 μmol/L) was incubated with recombinant human CYP 3A4, CYP 1A2, CYP 2C9, CYP 2C19, and CYP 2D6 (final concentration 25 pmol/mL) in a 5 mmol/L K2HPO4 buffer at pH 7.4. The incubations were performed in quintuplicate. NADPH (final concentration 1 mmol/L) was added to initiate the incubation process. The mixture was then incubated at 37°C for 1 h. To stop the reaction, 200 μL of ice-cold acetonitrile/methanol (1:1, v/v) containing 500 ng/mL of L-phencynonate (IS) was added. The samples were vortexed for 2 min and centrifuged at 13,800×g and 4°C for 10 min. The supernatants obtained were analyzed using an LC-MS-MS method. To establish appropriate controls, zero-time controls and blank controls in the absence of NADPH were set up in parallel.

[3] = test system: MDCK-MDR1 cells; assay: MTT cytotoxicity assay; type: cell-based, canine
Method: (§1) MDCK-MDR1 cells at passage 17 were cultured in DMEM supplemented with 10% FBS, 1% glutamine, 100 U/mL penicillin/streptomycin, 1% NEAA, and 1 mmol/L sodium pyruvate. The cells were incubated overnight at 37°C with 5% CO2 and a relative humidity of 90%. Once the cells reached approximately 80% confluence, they were treated with a 0.25% trypsin/EDTA solution to dissociate the cells. Subsequently, the cells were seeded at a density of 5 × 10^5 cells/cm^2 in Millicell-96 well plates (Millipore, Burlington, USA). Prior to conducting the experiments, the integrity of the cell monolayer was confirmed by measuring transepithelial electrical resistance (TEER) using a Millicell ERS® meter (Millipore, Burlington, USA). A TEER value greater than 400 Ω cm^2 was required to ensure the formation and preservation of tight junctions.
(§2) The ability of ammoxetine to inhibit the growth of MDCK-MDR1 cells was evaluated using the MTT assay. Ammoxetine was diluted with transport buffer [Hank’s balanced salt solution (HBSS) containing 6.0 g HEPES, pH 7.2–7.4] from a stock solution (2 mg/mL) dissolved in HBSS to create a series of standard concentrations: 1.28, 6.4, 32, 160, 800 ng/mL and 4, 20, 100, 500 μg/mL. Prior to the assay, the cell culture medium was aspirated and replaced with different standard concentrations of ammoxetine (100 μL/well, n = 6). The cells were then incubated at 37°C for 3 h. Following the incubation, 20 μL of MTT solution (5 mg/mL) was added to each well, and the incubation was continued for 4 h. Subsequently, the solution in each well was discarded, and 150 μL of dimethyl sulfoxide was added. After vortexing for 10 min, the absorbance was measured at 570 nm using a Varioskan® Flash multimode reader (Thermo Fisher Scientific, Waltham, USA). Blank control solutions, consisting of HBSS without ammoxetine, were also applied to the cells. The absorbance values were then used to calculate the relative growth rate (RGR, %) of cells using the formula RGR = ODammoxetine/ODblank × 100%, where ODammoxetine and ODblank represent the mean absorbance values of six parallel measurements in the ammoxetine and blank control solutions, respectively ([Ji et al., 2024]). The Prism 5 software (GraphPad Software, Inc., San Diego, USA) was used to determine the 50% toxic concentration (TC50) value of ammoxetine.

[4] = MTT cytotoxicity assay; type: cell-based, canine; conditions: dog, MDCK-MDR1 cells; 0–20 μg/mL, 3 h; read-out: cellular inhibition rate
Method: as §1, §2

CYP 2D6, sequence (P10635 whole entry): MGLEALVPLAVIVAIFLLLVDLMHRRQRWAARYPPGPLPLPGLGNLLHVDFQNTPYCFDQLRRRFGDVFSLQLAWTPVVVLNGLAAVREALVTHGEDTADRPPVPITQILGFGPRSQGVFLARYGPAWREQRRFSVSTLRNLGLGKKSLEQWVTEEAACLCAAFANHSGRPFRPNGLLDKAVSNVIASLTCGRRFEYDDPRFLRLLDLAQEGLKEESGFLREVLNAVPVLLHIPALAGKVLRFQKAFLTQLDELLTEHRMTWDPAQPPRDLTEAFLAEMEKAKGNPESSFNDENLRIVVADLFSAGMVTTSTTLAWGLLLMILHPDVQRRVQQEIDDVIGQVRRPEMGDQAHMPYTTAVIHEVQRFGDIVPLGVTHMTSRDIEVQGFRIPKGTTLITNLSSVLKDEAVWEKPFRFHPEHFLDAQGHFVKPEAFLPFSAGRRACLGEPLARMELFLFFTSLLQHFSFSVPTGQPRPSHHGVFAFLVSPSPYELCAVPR

**Q.** Which results are given for `CNCC[C@H](Oc1cccc2c1OCO2)c1cccs1` [ammoxetine]?
**A.** fraction unbound at 1 h, 50 ng/mL ([1]; 50 ng/mL, read-out: Percentage of ammoxetine-protein binding rate (%) (converted)): 0.338; fraction unbound at 1 h, 150 ng/mL ([1]; 150 ng/mL, read-out: Percentage of ammoxetine-protein binding rate (%) (converted)): 0.447; fraction unbound at 1 h, 450 ng/mL ([1]; 450 ng/mL, read-out: Percentage of ammoxetine-protein binding rate (%) (converted)): 0.506; fraction unbound at 1 h ([1]; approximate range over 50-450 ng/mL, read-out: PPB rate): 0.4 to 0.5; Transformation ratio% [2]: 14.09±1.89%; residuary concentration of ammoxetine, Mean±SD [2]: 5.89±0.13; RGR (%) ([3]; 0.16 μg/mL): 103.48±9.43%; RGR (%) ([3]; 0.80 μg/mL): 102.55±18.09%; RGR (%) ([3]; 4 μg/mL): 103.59±20.82%; RGR (%) ([3]; 20 μg/mL): 89.16±12.89%; RGR (%) ([3]; 100 μg/mL): 55.53±7.87%; RGR (%) ([3]; 500 μg/mL): 24.49±2.36%; RGR (%) ([3]; 1.28×e-3 μg/mL): 113.13±22.65%; RGR (%) ([3]; 3.20×e-2 μg/mL): 103.57±14.18%; RGR (%) ([3]; 6.40×e-3 μg/mL): 114.88±14.68%; TC50 ([3]; 50% toxic concentration from ln concentration-RGR curve): 79.76 ± 18.94 µg/mL (≈ 274 µM); inhibition at 3 h [4]: < 10%
